Patent US12383577B2, “Polysaccharide compound with a defined molecular structure that can eliminate the toxic side effects of chemotherapy drugs” (SHENZHEN YANDAI INVESTMENT CO., LTD, priority 2023, dated 2025)
Marks after values point to notes of the source that are not given here.

Columns and labels:
[1] = system: LLC-bearing mice; assay: Antitumor effect of GLP-2 combined with chemotherapy on LLC-bearing mice (tumor volume, tumor index, inhibition rates); format: in vivo, C57 mice
Method: Healthy LLC cells were inoculated subcutaneously into the left shoulder of 8 healthy male C57 mice. […] This suspension was then injected subcutaneously into the axilla of 52 healthy male C57 mice to establish a solid tumor model. Once all mouse tumors averaged a volume of about 180 mm3, mice were randomized into groups based on tumor volume and were administered the respective drugs or drug solvents via oral gavage or intraperitoneal injection for 18 consecutive days. Longest and shortest diameters of tumors were measured every three days to calculate tumor volume, and mouse weights were recorded every three days. At the end of the experiment, tumors, spleens, and thymuses were harvested and weighed to calculate tumor, spleen, and thymus indices. […] [table] […] Where TRTV is the relative tumor volume in the experimental group, and CRTV is the relative tumor volume in the model control group. Relative tumor volume (RTV)=Vt/V0, where Vt is the tumor volume on day t of dosing, and V0 is the tumor volume at the time of grouping. […] Where T represents the average tumor weight in the treatment group, and C represents the average tumor weight in the model control group. […] Spleen and thymus organ coefficients: After the last dose, spleen, thymus, and tumor weights are measured, and organ coefficients are calculated.

[2] = LLC-bearing mice study: mortality, survival time, body weight, spleen and thymus indices; format: in vivo, C57 mice
Method: Healthy LLC cells were inoculated subcutaneously into the left shoulder of 8 healthy male C57 mice. Once tumors reached a volume of 2,000-3,000 mm3, they were harvested and homogenized to prepare a homogenate suspension. This suspension was then injected subcutaneously into the axilla of 52 healthy male C57 mice to establish a solid tumor model. Once all mouse tumors averaged a volume of about 180 mm3, mice were randomized into groups based on tumor volume and were administered the respective drugs or drug solvents via oral gavage or intraperitoneal injection for 18 consecutive days. Longest and shortest diameters of tumors were measured every three days to calculate tumor volume, and mouse weights were recorded every three days. At the end of the experiment, tumors, spleens, and thymuses were harvested and weighed to calculate tumor, spleen, and thymus indices.
(§1) Spleen and thymus organ coefficients: After the last dose, spleen, thymus, and tumor weights are measured, and organ coefficients are calculated.

[3] = Orthotopic H22-bearing mice study: mortality, body weight, organ coefficients; format: in vivo; settings: Kanglaite soft capsule 1404 mg/kg oral, GLP-2 low dose 130 mg/kg oral
Text: (§2) An additional 6 mice served as the normal control group.

[4] = H22-bearing mice study: mortality, survival time, body weight, spleen and thymus indices; format: in vivo, C57 mice
Method: A homogenate suspension of H22 mouse hepatoma was injected subcutaneously under the axilla of 45 healthy male C57 mice to create a solid tumor model. Once all mouse tumors averaged a volume of about 150 mm3, mice were randomized into groups based on tumor volume and were administered the respective drugs or drug solvents via oral gavage or intraperitoneal injection for 18 consecutive days. Longest and shortest diameters of tumors were measured every three days to calculate tumor volume, and mouse weights were recorded every three days. At the end of the experiment, tumors, spleens, and thymuses were harvested and weighed to calculate tumor, spleen, and thymus indices.
as §1

[5] = system: H22-bearing mice; assay: Antitumor effect of GLP-2 combined with chemotherapy on H22-bearing mice (tumor volume, tumor index, inhibition rates); format: in vivo, C57 mice; settings: for Tumor growth inhibition rate vs. the model control group: by tumor weight, cisplatin 3 mg/kg i.p. alone or + GLP-2 low dose 50 mg/kg oral
Method: A homogenate suspension of H22 mouse hepatoma was injected subcutaneously under the axilla of 45 healthy male C57 mice to create a solid tumor model. Once all mouse tumors averaged a volume of about 150 mm3, mice were randomized into groups based on tumor volume and were administered the respective drugs or drug solvents via oral gavage or intraperitoneal injection for 18 consecutive days. Longest and shortest diameters of tumors were measured every three days to calculate tumor volume, and mouse weights were recorded every three days. At the end of the experiment, tumors, spleens, and thymuses were harvested and weighed to calculate tumor, spleen, and thymus indices. […] [table] […] Where TRTV is the relative tumor volume in the experimental group, and CRTV is the relative tumor volume in the model control group. Relative tumor volume (RTV)=Vt/V0, where Vt is the tumor volume on day t of dosing, and V0 is the tumor volume at the time of grouping. […] Where T represents the average tumor weight in the treatment group, and C represents the average tumor weight in the model control group. […] Spleen and thymus organ coefficients: After the last dose, spleen, thymus, and tumor weights are measured, and organ coefficients are calculated.

[6] = system: orthotopic H22-bearing mice; assay: Orthotopic H22-bearing mice: liver tumor by small animal in vivo imaging; design: species or system C57 mice; settings: Kanglaite soft capsule 1404 mg/kg oral, GLP-2 low dose 130 mg/kg oral
Method: An additional 6 mice served as the normal control group. […] The proposed clinical dose for Kanglaite soft capsules is 0.45 g per capsule, 6 capsules per dose, 4 doses per day, which totals 10.8 g per day. […] This study used the proposed clinical dose as a basis for the experiment. […] [table] Tumor volume measurement: Tumor volume changes were measured weekly using small animal in vivo imaging technology.

[7] = system: lymphocyte subtypes CD3+/CD4+ and CD3+/CD8+ in the blood; assay: Orthotopic H22-bearing mice study: blood CD3+/CD4+ and CD3+/CD8+ by flow cytometry; format: in vivo, C57 mice; settings: blood after last dose, cisplatin 4 mg/kg i.p., Kanglaite soft capsule 1404 mg/kg oral, GLP-2 low dose 130 mg/kg oral
Method: as §2
CD4^+and CD8^+content measurement: After the last dose, lymphocyte subtypes CD3^+/CD4^+and CD3^+/CD8^+in the blood were measured using flow cytometry.

[8] = Orthotopic H22-bearing mice study: routine blood tests and liver/kidney function indicators; format: in vivo, C57 mice; settings: blood after last dose, cisplatin 4 mg/kg i.p., Kanglaite soft capsule 1404 mg/kg oral, GLP-2 low dose 130 mg/kg oral
Method: as §2
Hematological tests: After the last dose, routine blood tests (WBC and RBC) and biochemical tests (liver and kidney functions) were performed.

[9] = D0, cisplatin 4 mg/kg i.p. alone or + GLP-2 low dose 50 mg/kg oral
[10] = D3, cisplatin 4 mg/kg i.p. alone or + GLP-2 low dose 50 mg/kg oral
[11] = D6, cisplatin 4 mg/kg i.p. alone or + GLP-2 low dose 50 mg/kg oral
[12] = D9, cisplatin 4 mg/kg i.p. alone or + GLP-2 low dose 50 mg/kg oral
[13] = D12, cisplatin 4 mg/kg i.p. alone or + GLP-2 low dose 50 mg/kg oral
[14] = D15, cisplatin 4 mg/kg i.p. alone or + GLP-2 low dose 50 mg/kg oral
[15] = D18, cisplatin 4 mg/kg i.p. alone or + GLP-2 low dose 50 mg/kg oral
[16] = 14 days, cisplatin 4 mg/kg i.p.
[17] = 18 days, cisplatin 3 mg/kg i.p. alone or + GLP-2 low dose 50 mg/kg oral
[18] = D0, cisplatin 3 mg/kg i.p. alone or + GLP-2 low dose 50 mg/kg oral
[19] = D3, cisplatin 3 mg/kg i.p. alone or + GLP-2 low dose 50 mg/kg oral
[20] = D6, cisplatin 3 mg/kg i.p. alone or + GLP-2 low dose 50 mg/kg oral
[21] = D9, cisplatin 3 mg/kg i.p. alone or + GLP-2 low dose 50 mg/kg oral
[22] = D12, cisplatin 3 mg/kg i.p. alone or + GLP-2 low dose 50 mg/kg oral
[23] = D15, cisplatin 3 mg/kg i.p. alone or + GLP-2 low dose 50 mg/kg oral
[24] = D18, cisplatin 3 mg/kg i.p. alone or + GLP-2 low dose 50 mg/kg oral

In the case of `N.N.[Cl][Pt][Cl]` [Cisplatin], the Tumor volume [1, 9] is reported as 193 ± 41.9 mm^3, the Tumor volume [1, 10] is reported as 350.8 ± 138.5 mm^3 and the Tumor volume [1, 11] is reported as 692.4± 215.3^+ mm^3. For the same compound, the Tumor volume [1, 12] was 956.4± 394^+ mm^3, the Tumor volume [1, 13] was 1186.6± 386.4^+ mm^3 and the Tumor volume [1, 14] was 1388.9± 448.2^+ mm^3. For the same compound, the Tumor volume [1, 15] was 1679.8± 439^+ mm^3, the “Tumor growth inhibition rate vs. the model control group” value ([1]; by tumor weight, cisplatin 4 mg/kg i.p. alone or + GLP-2 low dose 50 mg/kg oral) was 67.3% and the Number of deaths ([2]; 18 days, cisplatin 4 mg/kg i.p. alone or + GLP-2 low dose 50 mg/kg oral) was 2. It also gave a Weight [2, 9] of 20.8 ± 1.4 g, a Weight [2, 10] of 20.7 ± 1.3 g and a Weight [2, 11] of 20.4 ± 1 g. The Weight [2, 12] was 19.7± 0.8*^+ g, the Weight [2, 13] was 18.5 ± 0.6*+ g and the Weight [2, 14] was 18.2± 1.2*^+ g. The Weight [2, 15] was 17.9± 1.4*^+ g, the Survival time ([2]; cisplatin 4 mg/kg i.p. alone or + GLP-2 low dose 50 mg/kg oral) was 17.1 ± 1.9 days and the Mortality rate [3, 16] was 50.0%. For the same compound, the Number of deaths [3, 16] was 3, the “Number of surviving animals” value [3, 16] was 3 and the Weight ([3]; W0, cisplatin 4 mg/kg i.p.) was 18.5 ± 1.3 g. For the same compound, the Weight ([3]; W1, cisplatin 4 mg/kg i.p.) was 16.9 ± 1.8 g, the Weight ([3]; W2, cisplatin 4 mg/kg i.p.) was 15.1 ± 1.6 g and the Liver coefficient ([3]; cisplatin 4 mg/kg i.p.) was 11.365 ± 3.599%. For the same compound, the Spleen coefficient ([3]; cisplatin 4 mg/kg i.p.) was 0.524± 0.295 %, the Thymus coefficient ([3]; cisplatin 4 mg/kg i.p.) was 0.078 ± 0.023 % and the Mortality rate [4, 17] was 0.0%. It also gave a Number of deaths [4, 17] of 0, a Weight [4, 18] of 20.6 ± 1.3 g and a Weight [4, 19] of 20.8 ± 1.3 g. For the same compound, the Weight [4, 20] was 21 ± 1.3 g, the Weight [4, 21] was 21 ± 1.5 g and the Weight [4, 22] was 20.7± 1.4^+ g. For the same compound, the Weight [4, 23] was 20.5± 1.4^+ g, the Weight [4, 24] was 19.9± 1.7^+ g and the Survival time ([4]; cisplatin 3 mg/kg i.p. alone or + GLP-2 low dose 50 mg/kg oral) was 18 ± 0 days. For the same compound, the Tumor volume [5, 18] was 167.9 ± 42.2 mm^3, the Tumor volume [5, 19] was 205.9 ± 122.5 mm^3 and the Tumor volume [5, 20] was 417.4 ± 228.3 mm^3. The Tumor volume [5, 21] was 577.3 ± 420.2 mm^3, the Tumor volume [5, 22] was 798± 676.5^+ mm^3 and the Tumor volume [5, 23] was 952.7± 711.9^+ mm^3. For the same compound, the Tumor volume [5, 24] was 1097± 805.3^+ mm^3, the “Tumor growth inhibition rate vs. the model control group” value [5] was 57.3^+ % and the “Tumor growth inhibition rate vs. the model control group” value ([5]; listed as cisplatin) was 57.3%. For the same compound, the Tumor ([6]; W0, cisplatin 4 mg/kg i.p.) was 3756000 ± 2439052 P/s/cm^2/sr, the Tumor ([6]; W1, cisplatin 4 mg/kg i.p.) was 12898500 ± 3588676 P/s/cm^2/sr and the Tumor ([6]; W2, cisplatin 4 mg/kg i.p.) was 11871333 ± 2780016^& P/s/cm^2/sr. For the same compound, the “CD3^+/CD4^+” value [7] was 4.26 ± 0.04, the “CD3^+/CD8^+” value [7] was 4.21 ± 0.81 and the ALT [8] was 115 ± 39 U/L. The AST [8] was 771 ± 153 UL, the BUN [8] was 13.52 ± 4.94 mmol/L and the CRE [8] was 18.9 ± 2.7 µmol/L. The RBC [8] was 8.91 ± 0.22 10^12/L and the WBC [8] was 4.41 ± 1.83 10^9/L.
